“And” between values parts separate entries of the source, which are not always exact repeats. Equal entries are not always repeated.
How the values were obtained:
[1] = molecular target: T1, Retinoic acid receptor RXR-alpha (Homo sapiens, UniProt P19793); assay: biochemical
T1 sequence (P19793 whole entry): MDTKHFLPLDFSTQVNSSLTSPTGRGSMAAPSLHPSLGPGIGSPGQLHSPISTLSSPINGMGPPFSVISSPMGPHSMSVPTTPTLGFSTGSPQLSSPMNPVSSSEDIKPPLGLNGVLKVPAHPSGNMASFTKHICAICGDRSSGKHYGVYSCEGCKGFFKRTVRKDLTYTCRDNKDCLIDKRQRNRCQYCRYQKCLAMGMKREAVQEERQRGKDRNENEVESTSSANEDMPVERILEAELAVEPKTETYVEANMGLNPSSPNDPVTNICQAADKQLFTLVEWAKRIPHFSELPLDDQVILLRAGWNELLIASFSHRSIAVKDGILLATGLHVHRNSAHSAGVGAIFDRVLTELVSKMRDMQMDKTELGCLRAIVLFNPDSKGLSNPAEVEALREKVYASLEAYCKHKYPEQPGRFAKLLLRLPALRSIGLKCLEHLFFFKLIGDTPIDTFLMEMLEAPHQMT
Description: Binding affinity against RXR alpha receptor using [3H]9-cis-RA as radioligand in CV-1 cells

[2] = molecular target: T2, Peroxisome proliferator-activated receptor gamma (Homo sapiens, UniProt P37231)
T2 sequence (P37231 whole entry): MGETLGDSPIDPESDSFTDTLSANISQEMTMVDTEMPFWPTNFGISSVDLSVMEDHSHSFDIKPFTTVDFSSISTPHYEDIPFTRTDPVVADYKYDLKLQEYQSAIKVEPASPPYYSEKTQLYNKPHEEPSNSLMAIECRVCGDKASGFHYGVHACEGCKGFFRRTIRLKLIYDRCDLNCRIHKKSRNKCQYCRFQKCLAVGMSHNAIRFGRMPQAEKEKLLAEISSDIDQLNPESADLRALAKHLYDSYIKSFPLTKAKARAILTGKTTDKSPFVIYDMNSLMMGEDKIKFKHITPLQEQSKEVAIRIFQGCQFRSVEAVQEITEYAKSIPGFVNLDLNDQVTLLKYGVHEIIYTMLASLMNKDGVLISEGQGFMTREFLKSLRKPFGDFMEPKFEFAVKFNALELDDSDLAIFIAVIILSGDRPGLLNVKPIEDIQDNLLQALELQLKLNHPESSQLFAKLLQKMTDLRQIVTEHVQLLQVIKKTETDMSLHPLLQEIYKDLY
Description: In vitro agonistic activity against PPAR gamma along with 100 nM BRL-49653

[3] = molecular target: T3, Retinoic acid receptor beta (Homo sapiens, UniProt P10826); assay: Binding affinity against RAR beta receptor using [3H]ATRA as radioligand in CV-1 cells; type: cell-based, Cercopithecidae
T3 sequence (P10826 whole entry): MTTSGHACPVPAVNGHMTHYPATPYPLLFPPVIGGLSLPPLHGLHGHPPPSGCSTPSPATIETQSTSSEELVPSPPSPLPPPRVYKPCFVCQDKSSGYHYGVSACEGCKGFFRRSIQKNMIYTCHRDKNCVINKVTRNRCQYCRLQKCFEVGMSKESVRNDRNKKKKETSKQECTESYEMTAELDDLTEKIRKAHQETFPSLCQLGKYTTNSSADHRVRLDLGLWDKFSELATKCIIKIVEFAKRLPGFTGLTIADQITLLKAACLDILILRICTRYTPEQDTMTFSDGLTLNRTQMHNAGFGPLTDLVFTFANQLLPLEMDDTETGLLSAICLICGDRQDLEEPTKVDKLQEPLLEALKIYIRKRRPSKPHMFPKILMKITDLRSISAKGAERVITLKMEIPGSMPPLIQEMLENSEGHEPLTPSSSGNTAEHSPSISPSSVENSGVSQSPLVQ

[4] = molecular target: T1, Retinoic acid receptor RXR-alpha; assay: In vitro antagonist activity against RXR alpha in CV-1 cells; type: functional, cell-based, Cercopithecidae
[5] = molecular target: T4, Retinoic acid receptor gamma (Homo sapiens, UniProt P13631); assay: Binding affinity against RAR gamma receptor using [3H]ATRA as radioligand in CV-1 cells; type: cell-based, Cercopithecidae
T4 sequence (P13631 whole entry): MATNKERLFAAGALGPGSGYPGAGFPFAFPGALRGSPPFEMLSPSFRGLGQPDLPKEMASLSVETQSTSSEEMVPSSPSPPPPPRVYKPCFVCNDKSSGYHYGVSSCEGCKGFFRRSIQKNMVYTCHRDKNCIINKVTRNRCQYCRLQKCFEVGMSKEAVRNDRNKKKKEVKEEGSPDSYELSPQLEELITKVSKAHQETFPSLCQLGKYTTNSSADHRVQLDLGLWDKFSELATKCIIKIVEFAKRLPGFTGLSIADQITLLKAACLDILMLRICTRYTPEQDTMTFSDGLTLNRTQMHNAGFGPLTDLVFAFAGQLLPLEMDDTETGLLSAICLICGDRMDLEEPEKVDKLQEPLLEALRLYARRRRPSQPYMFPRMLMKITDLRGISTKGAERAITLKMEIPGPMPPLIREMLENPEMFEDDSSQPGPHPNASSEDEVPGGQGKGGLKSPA

[6] = molecular target: T5, Retinoic acid receptor RXR-gamma (Homo sapiens, UniProt P48443); assay: Binding affinity against RXR gamma receptor using [3H]9-cis-RA as radioligand in CV-1 cells; type: cell-based, Cercopithecidae
T5 sequence (P48443 whole entry): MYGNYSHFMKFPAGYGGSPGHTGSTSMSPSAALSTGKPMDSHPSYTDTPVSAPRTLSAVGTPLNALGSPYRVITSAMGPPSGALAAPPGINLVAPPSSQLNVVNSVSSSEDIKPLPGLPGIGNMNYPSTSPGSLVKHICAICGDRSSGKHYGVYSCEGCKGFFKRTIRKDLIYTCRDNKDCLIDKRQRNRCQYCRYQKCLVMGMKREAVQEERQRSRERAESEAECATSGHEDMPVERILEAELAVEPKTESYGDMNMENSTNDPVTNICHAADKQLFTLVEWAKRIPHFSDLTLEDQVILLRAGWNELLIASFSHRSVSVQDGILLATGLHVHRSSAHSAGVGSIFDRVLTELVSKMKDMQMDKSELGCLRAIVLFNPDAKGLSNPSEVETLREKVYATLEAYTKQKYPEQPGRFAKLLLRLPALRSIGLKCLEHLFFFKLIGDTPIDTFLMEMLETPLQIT

[7] = molecular target: T2, Peroxisome proliferator-activated receptor gamma; remark: listed apart in the source
Description: In vitro agonist efficacy against PPAR gamma along with 100 nM BRL-49653

[8] = molecular target: T6, Retinoic acid receptor RXR-beta (Homo sapiens, UniProt P28702); assay: Displacement of [3H]9-cis-RA from RXR beta receptor in CV-1 cells; type: cell-based, Cercopithecidae
T6 sequence (P28702 whole entry): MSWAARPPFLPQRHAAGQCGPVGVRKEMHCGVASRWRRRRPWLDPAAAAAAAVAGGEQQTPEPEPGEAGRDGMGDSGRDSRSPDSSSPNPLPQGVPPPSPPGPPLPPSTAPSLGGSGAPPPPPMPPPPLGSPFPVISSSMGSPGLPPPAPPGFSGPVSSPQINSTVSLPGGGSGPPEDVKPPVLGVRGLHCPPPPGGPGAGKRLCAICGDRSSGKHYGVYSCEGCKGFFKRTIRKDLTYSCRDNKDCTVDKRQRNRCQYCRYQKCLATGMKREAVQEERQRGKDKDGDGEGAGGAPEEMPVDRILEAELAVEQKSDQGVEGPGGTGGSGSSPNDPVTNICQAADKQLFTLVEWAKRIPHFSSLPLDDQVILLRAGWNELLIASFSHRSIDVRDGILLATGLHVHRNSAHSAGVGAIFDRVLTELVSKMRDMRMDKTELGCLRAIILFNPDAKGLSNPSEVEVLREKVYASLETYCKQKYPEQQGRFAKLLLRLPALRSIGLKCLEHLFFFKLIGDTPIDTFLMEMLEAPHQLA

[9] = molecular target: T7, Retinoic acid receptor alpha (Homo sapiens) (UniProt P10276); assay: Agonist synergy against RAR alpha was tested along with 3 nM TTNPB; type: functional; settings: Cercopithecidae
T7 sequence (whole entry): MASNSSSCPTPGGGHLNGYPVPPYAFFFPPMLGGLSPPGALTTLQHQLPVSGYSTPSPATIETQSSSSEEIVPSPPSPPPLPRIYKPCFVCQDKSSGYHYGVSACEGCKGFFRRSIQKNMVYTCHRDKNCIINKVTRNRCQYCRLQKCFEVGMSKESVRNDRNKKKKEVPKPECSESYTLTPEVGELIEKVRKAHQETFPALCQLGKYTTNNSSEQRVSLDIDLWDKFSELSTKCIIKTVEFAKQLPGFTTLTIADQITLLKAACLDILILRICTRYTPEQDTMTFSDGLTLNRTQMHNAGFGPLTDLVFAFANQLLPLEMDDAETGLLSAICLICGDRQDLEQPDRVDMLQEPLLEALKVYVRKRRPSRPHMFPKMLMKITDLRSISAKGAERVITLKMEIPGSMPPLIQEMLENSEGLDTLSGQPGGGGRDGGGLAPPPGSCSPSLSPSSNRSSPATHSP

[10] = molecular target: T8, Retinoic acid receptor alpha (Homo sapiens, UniProt P10276); assay: Binding affinity against RAR alpha receptor using [3H]ATRA as radioligand in CV-1 cells; type: cell-based, Cercopithecidae
T8 sequence (P10276 whole entry): T7 sequence (whole entry)

[11] = Area under curve at 0-8 hr in IRC mice after peroral administration; type: ADME, organism-based; set-up: time < 8 hr, route oral; settings: mouse, in vivo, po
[12] = Cmax value in IRC mice; type: ADME, organism-based; settings: mouse, in vivo
[13] = Tmax value in IRC mice; type: ADME, organism-based; settings: mouse, in vivo

Compound | Ki [1] | EC50 [2] | Ki [3] | IC50 [4] | Ki [5] | Ki [6] | EC50 [7] | Ki [8] | Synergy [9] | Ki [10] | AUC(0-t) at 8 h [11] | Cmax [12] | Tmax [13]
C/C(=C/C=C/C(C)=C/C(=O)O)c1cc(-c2cc(F)cc(F)c2)cc(C(C)C)c1OCC(F)F | 0.0026 µM | 0.0027 µM | 1.96 µM | 0.0046 µM | > 10 µM | 0.0028 µM | 0.04 µM | 0.0024 µM | 0.8 nM | > 10 µM | – | – | –
CCCOc1c(\C(C)=C/C=C/C(C)=C/C(=O)O)cc(C(F)(F)C(F)(F)F)cc1C(C)C | 0.0256 µM | 0.0027 µM | 1.98 µM | 0.0051 µM | > 1 µM | 0.0276 µM | 0.059 µM | 0.0172 µM | 1.4 nM | 2.5 µM | – | – | –
CC(/C=C/C(F)=C(/C)c1cc(C(C)(C)C)cc(C(C)(C)C)c1OCC(F)(F)F)=C\C(=O)O | 0.0041 µM | 0.0122 µM | 6.01 µM | 0.0072 µM | > 10 µM | 0.0124 µM | 0.03 µM | 0.0155 µM | 1.5 nM | 4.66 µM | – | – | –
CC(/C=C/[C@@H]1C[C@]1(C)c1ccc2c(c1)C(C)(C)CCC2(C)C)=C\C(=O)O [IRX-4204] | – | 0.0086 µM | – | – | – | – | 0.054 µM | – | 1.9 nM | – | – | – | –
Cc1cc2c(cc1C1(c3ccc(C(=O)O)cn3)CC1)C(C)(C)CCC2(C)C | – | – | – | – | – | 0.012 µM | – | 0.075 µM | 6.9 nM | – | – | – | –
CCCCOc1c(\C(C)=C/C=C/C(C)=C/C(=O)O)cc(C(F)(F)C(F)(F)F)cc1C(C)C | 0.0214 µM | 0.0074 µM | 2.27 µM | 0.004 µM | > 10 µM | 0.0457 µM | 0.071 µM | 0.0082 µM | 1.2 nM | 2.75 µM | – | – | –
CCCCOc1c(\C(C)=C(F)/C=C/C(C)=C/C(=O)O)cc(C(C)C)cc1C(C)C | 0.0044 µM | 0.0041 µM | 4.62 µM | 0.0047 µM | > 10 µM | 0.0278 µM | 0.047 µM | 0.0244 µM | 1.5 nM | 3.73 µM | – | – | –
C/C(=C/C=C/C(C)=C/C(=O)O)c1cc(-c2cccc(F)c2)cc(C(C)C)c1OCC(F)F | 0.001 µM | 0.0008 µM | 3.6 µM | 0.0039 µM | > 10 µM | 0.0029 µM | 0.036 µM | 0.0074 µM | 1.6 nM | > 10 µM | – | – | –
C/C(=C/C=C/C(C)=C/C(=O)O)c1cc(-c2cccs2)cc(C(C)C)c1OCC(F)F | 0.0008 µM | 0.0047 µM | 2.11 µM | 0.0019 µM | > 10 µM | 0.0056 µM | 0.015 µM | 0.0039 µM | 1.4 nM | 4.55 µM | – | – | –
C/C(=C/C=C/C(C)=C/C(=O)O)c1cc(C(C)(C)C)cc(C(C)(C)C)c1OCC(F)F | – | – | 9.51 µM | – | > 9.51 µM | 0.084 µM | – | 0.004 µM | – | 0.054 µM | 3800 ng·h/mL | 760 ng/mL and 1.81 µM | 1 h
C/C(=C/C=C/C(C)=C/C(=O)O)c1cc(-c2ccc(F)cc2)cc(C(C)C)c1OCC(F)F | 0.0008 µM | 0.0013 µM | 2.11 µM | 0.0022 µM | > 10 µM | 0.0056 µM | 0.032 µM | 0.0039 µM | 1.1 nM | 4.55 µM | – | – | –
C/C(=C/C=C/C(C)=C/C(=O)O)c1cc(C(C)C)cc(-c2ccccc2)c1OCC(F)F | 0.0061 µM | 0.0163 µM | 2.61 µM | 0.0579 µM | > 10 µM | 0.0225 µM | 0.078 µM | 0.0123 µM | 1 nM | 4.66 µM | – | – | –
CCC(C)(C)c1cc(\C(C)=C(F)/C=C/C(C)=C/C(=O)O)c(OCC(F)F)c(C(C)(C)CC)c1 | 0.0287 µM | 0.0027 µM | 5.33 µM | 0.0137 µM | > 10 µM | 0.0403 µM | 0.051 µM | 0.0052 µM | 1.5 nM | 6.59 µM | – | – | –
